This note sets out measurements from ChEMBL document CHEMBL5038635, “Discovery of Salidroside-Derivated Glycoside Analogues as Novel Angiogenesis Agents to Treat Diabetic Hind Limb Ischemia” (J Med Chem, 2022).

In brackets after ≈: the same amount, converted by molar mass. Activity calls are given as the source filed them. The rule behind the calls is not given here.

The target in data set [1] is Hypoxia-inducible factor 1-alpha (Mus musculus) (UniProt Q61221). The experiment in a line: Inhibition of HIF-1alpha in mouse C2C12 cells transfected with PDGF-B driven firefly luciferase gene assessed as transcriptional activity pretreated with compound for 12 hr followed by hypoxic condition for 24 hrs by dual luciferase reporter gene assay. Particulars: time 36.0 hrs. Type of data set: cell-based. (In general: In a reporter assay the amount or activity of a reporter protein is the signal.)
Chain of Hypoxia-inducible factor 1-alpha (Mus musculus) (Q61221 whole entry): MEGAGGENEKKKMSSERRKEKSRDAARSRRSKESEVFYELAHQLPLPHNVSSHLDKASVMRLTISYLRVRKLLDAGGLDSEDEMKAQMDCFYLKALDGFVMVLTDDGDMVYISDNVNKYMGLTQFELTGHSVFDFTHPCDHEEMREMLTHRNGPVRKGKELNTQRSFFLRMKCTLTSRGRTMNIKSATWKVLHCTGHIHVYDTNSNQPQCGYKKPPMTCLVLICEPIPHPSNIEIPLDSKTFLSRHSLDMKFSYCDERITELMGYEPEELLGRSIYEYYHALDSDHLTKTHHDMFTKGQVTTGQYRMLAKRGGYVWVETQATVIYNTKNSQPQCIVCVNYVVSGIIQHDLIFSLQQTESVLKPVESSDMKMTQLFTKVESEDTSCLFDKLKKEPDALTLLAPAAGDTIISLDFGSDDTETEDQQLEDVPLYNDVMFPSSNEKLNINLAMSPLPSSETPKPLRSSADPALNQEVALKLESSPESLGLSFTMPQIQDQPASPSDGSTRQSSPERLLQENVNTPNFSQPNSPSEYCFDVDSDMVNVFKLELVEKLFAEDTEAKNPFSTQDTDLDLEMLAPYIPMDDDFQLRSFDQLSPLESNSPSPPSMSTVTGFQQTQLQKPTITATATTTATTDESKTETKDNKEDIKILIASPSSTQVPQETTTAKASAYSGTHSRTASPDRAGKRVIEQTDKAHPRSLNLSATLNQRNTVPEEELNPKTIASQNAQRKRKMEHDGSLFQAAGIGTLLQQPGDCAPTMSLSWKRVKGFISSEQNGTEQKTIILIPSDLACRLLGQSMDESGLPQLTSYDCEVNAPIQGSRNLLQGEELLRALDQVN

The target is the same in data set [2]. The experiment in a line: Inhibition of HIF-1alpha in mouse C2C12 cells transfected with HRE-driven firefly luciferase gene assessed as fold change in transcriptional activity at 300 uM pretreated with compound for 12 hr followed by hypoxic condition for 24 hrs by dual luciferase reporter gene assay. Type of data set: cell-based. Particulars: time 36.0 hrs.

Data set [3] in a line: Efflux ratio of Apparent permeability across basolateral to apical side over apical to basolateral side in human Caco-2 cells. In general terms: Passage across Caco-2 layers is used to estimate intestinal permeability.
A short description of data set [4]: Water solubility of the compound by HPLC analysis.
Data set [5] in a line: Dissociation constant, pKa of compound by UV-visible spectrometric method. Format: physicochemical.
Data set [6] is described as follows: Octanol/Water partition coefficient, log P of the compound by HPLC-UV analysis.
Data set [7] is described as follows: Permeability coefficient across apical to basolateral side in human Caco-2 cells by HPLC-UV analysis.
Data set [8] is described as follows: Permeability coefficient across basolateral to apical side in human Caco-2 cells by HPLC-UV analysis.
Data set [9] concerns C2C12. The data set is described as follows: Angiogenic activity in mouse C2C12 cells assessed as accumulation HIF-1alpha protein expression at 300 uM by Western blot analysis. Type of data set: functional, cell-based. A general note: Immunoblotting shows a protein as a band on a membrane.
Data set [10] deals with C2C12. The data set is described as follows: Angiogenic activity in mouse C2C12 cells assessed as accumulation PDGF-BB protein expression at 300 uM by Western blot analysis. Format: functional, cell-based.
Data set [11] deals with C2C12. The experiment in a line: Angiogenic activity in mouse C2C12 cells assessed as accumulation VEGF-A protein expression at 300 uM by Western blot analysis. Type of data set: functional, cell-based.
Data set [12] relates to C2C12. The data set is described as follows: Angiogenic activity in mouse C2C12 cells assessed as accumulation ANG1 protein expression at 300 uM by Western blot analysis. Format: functional, cell-based.
The test system of data set [13] is C2C12. The experiment in a line: Angiogenic activity in mouse C2C12 cells assessed as reversal of hyperglycemia-induced reduction in total cell number at 7.5 uM measured after 36 hrs by EdU-incorporation assay. Type of data set: functional, cell-based.
The subject of data set [14] is C2C12. The experiment in a line: Angiogenic activity in mouse C2C12 cells assessed as reversal of hyperglycemia-induced reduction in total cell number at 15 uM measured after 36 hrs by EdU-incorporation assay. Type of data set: functional, cell-based.
Data set [15] has as its system C2C12. The experiment in a line: Angiogenic activity in mouse C2C12 cells assessed as reversal of hyperglycemia-induced reduction in total cell number at 30 uM measured after 24 hrs by EdU-incorporation assay. Format: functional, cell-based.
For data set [16], the system named is C2C12. The experiment in a line: Angiogenic activity in mouse C2C12 cells assessed as reversal of hyperglycemia-induced reduction in total cell number at 100 uM measured after 36 hrs by EdU-incorporation assay. Type of data set: functional, cell-based.
In data set [17] the test system is C2C12. The experiment in a line: Angiogenic activity in mouse C2C12 cells assessed as reversal of hyperglycemia-induced reduction in total cell number at 300 uM measured after 36 hrs by EdU-incorporation assay. Type of data set: functional, cell-based.
Data set [18] relates to C2C12. The data set is described as follows: Induction of proliferation of hyperglycemia-induced mouse C2C12 cell death assessed as increase in number of EdU-positive cells at 7.5 to 300 uM pretreated with compound under hyperglycemia condition for 12 hr followed by hypoxia for 24 hrs. Type of data set: functional, cell-based. The note with it: dose 7.5-300 µM, time 36.0 hrs.

Data set [19] concerns C2C12. The data set is described as follows: Induction of proliferation of hyperglycemia-induced mouse C2C12 cell death assessed as increase in number of EdU-positive cells at 15 uM pretreated with compound under hyperglycemia condition for 12 hr followed by hypoxia for 24 hrs. Particulars: time 36.0 hrs. Type of data set: functional, cell-based.
The subject of data set [20] is C2C12. The experiment in a line: Induction of proliferation of hyperglycemia-induced mouse C2C12 cell apoptosis assessed as decrease in Annexin V/PI-positive cells at 15 uM pretreated with compound under hyperglycemia condition for 12 hr followed by hypoxia for 24 hrs. Type of data set: functional, cell-based. The note with it: time 36.0 hrs.
Data set [21] concerns C2C12. The experiment in a line: Induction of proliferation of hyperglycemia-induced mouse C2C12 cell apoptosis assessed as decrease in Annexin V/PI-positive cells at 30 uM pretreated with compound under hyperglycemia condition for 12 hr followed by hypoxia for 24 hrs. Format: functional, cell-based. The note with it: time 36.0 hrs.
Data set [22] concerns C2C12. The experiment in a line: Apoptotic rate in hyperglycemia-treated mouse C2C12 cells assessed as necrotic cells at 15 uM by AnnexinV-FITC/PI staining based flow cytometric analysis (reference value: 0.56 %). Format: functional.
The subject of data set [23] is C2C12. The experiment in a line: Apoptotic rate in hyperglycemia-treated mouse C2C12 cells assessed as late apoptotic cells at 15 uM by AnnexinV-FITC/PI staining based flow cytometric analysis (reference value: 10.44 %). Format: functional.
Data set [24] has as its system C2C12. The data set is described as follows: Apoptotic rate in hyperglycemia-treated mouse C2C12 cells assessed as early apoptotic cells at 15 uM by AnnexinV-FITC/PI staining based flow cytometric analysis (reference value: 7.10 %). Type of data set: functional.
In data set [25] the test system is C2C12. The data set is described as follows: Apoptotic rate in hyperglycemia-treated mouse C2C12 cells assessed as viable cells at 15 uM by AnnexinV-FITC/PI staining based flow cytometric analysis (reference value: 81.90 %). Type of data set: functional. The note with it: read-out: Activity.
Data set [26] has as its system C2C12. The data set is described as follows: Apoptotic rate in hyperglycemia-treated mouse C2C12 cells assessed as necrotic cells at 30 uM by AnnexinV-FITC/PI staining based flow cytometric analysis (reference value: 0.56 %). Format: functional.
The test system of data set [27] is C2C12. The data set is described as follows: Apoptotic rate in hyperglycemia-treated mouse C2C12 cells assessed as late apoptotic cells at 30 uM by AnnexinV-FITC/PI staining based flow cytometric analysis (reference value: 10.44 %). Type of data set: functional.
Data set [28] deals with C2C12. The experiment in a line: Apoptotic rate in hyperglycemia-treated mouse C2C12 cells assessed as early apoptotic cells at 30 uM by AnnexinV-FITC/PI staining based flow cytometric analysis (reference value: 7.10 %). Format: functional.
Data set [29] has as its system C2C12. The data set is described as follows: Apoptotic rate in hyperglycemia-treated mouse C2C12 cells assessed as viable cells at 30 uM by AnnexinV-FITC/PI staining based flow cytometric analysis (reference value: 81.90 %). Particulars: read-out: Activity. Type of data set: functional.

With `COc1ccc(-c2ccc(O[C@@H]3O[C@H](CO)[C@@H](O)[C@H](O)[C@H]3O)cc2)cc1`, the inhibition result in [1] is “Active”. For the same compound, the fold change (FC) in data set [2] worked out at 2.5.
For the compound `OC[C@H]1O[C@@H](Oc2ccc(Cc3ccc(O)c(O)c3)cc2)[C@H](O)[C@@H](O)[C@@H]1O`, the “HIF-1alpha inhibition call (active/inactive)” value in data set [2] is “Active”.
Consider `OC[C@H]1O[C@@H](OCCCc2ccc(O)cc2)[C@H](O)[C@@H](O)[C@@H]1O`, for which the fold change (FC) in data set [2] came to 1.52.
Regarding `COc1ccc(C(C)(C)CO[C@@H]2O[C@H](CO)[C@@H](O)[C@H](O)[C@H]2O)cc1`, the inhibition result in [1] was “Active”.
Turning to `COc1ccc(-c2cccc(O[C@@H]3O[C@H](CO)[C@@H](O)[C@H](O)[C@H]3O)c2)cc1`, the inhibition entry in data set [1] was “Active”. Besides, the fold change (FC) in data set [2] came to 2.5.
On to `CC(C)(CO[C@@H]1O[C@H](CO)[C@@H](O)[C@H](O)[C@H]1O)c1ccc(O)cc1`, for which, in [2], the fold change (FC) came to 1.73.
As for `COc1ccc(Cc2ccccc2O[C@@H]2O[C@H](CO)[C@@H](O)[C@H](O)[C@H]2O)cc1` [SERGLIFLOZIN A], the efflux ratio in data set [3] came out at 1.04. Besides, the fold change (FC) in [2] was 0.78. In [4], this compound displayed a solubility of 6710 µg/mL (≈ 17.8 mM). This compound returned a pKa in data set [5] above 14. This compound also displayed a lipophilicity (logP) in [6] of 1.07. In data set [7], this compound had a Papp A→B of 1.75 ×10⁻⁶ cm/s. Moreover, in data set [8], the apparent permeability from basolateral to apical (Papp B→A) stood at 1.82 ×10⁻⁶ cm/s.
In the case of `COc1ccc(CCO[C@@H]2O[C@H](CO)[C@@H](O)[C@H](O)[C@H]2O)cc1`, in [1], the inhibition result was “Active”. Besides, the fold change (FC) in [2] amounted to 1.69.
`OC[C@H]1O[C@@H](OCCc2ccc(F)cc2)[C@H](O)[C@@H](O)[C@@H]1O`: the inhibition result in data set [1] is “Active”. In [2], the fold change (FC) is 1.47.
As to `C[C@H]1O[C@@H](O[C@H]2[C@@H](O)C[C@H](O[C@H]3[C@@H](O)C[C@H](O[C@H]4CC[C@@]5(C)[C@H](CC[C@@H]6[C@@H]5C[C@@H](O)[C@]5(C)[C@@H](C7=CC(=O)OC7)CC[C@]65O)C4)O[C@@H]3C)O[C@@H]2C)C[C@H](O)[C@@H]1O` [DIGOXIN], the efflux ratio in data set [3] amounted to 11.1. The Papp A→B in [7] was found to be 1.33 ×10⁻⁶ cm/s. For the same compound, the basolateral-to-apical permeability (Papp B→A) in [8] amounted to 14.7 ×10⁻⁶ cm/s.
Take `COc1ccc(Cc2ccc(O[C@@H]3O[C@H](CO)[C@@H](O)[C@H](O)[C@H]3O)cc2)cc1`: the inhibition result (in [1]; in the data set on C2C12 [9]; in the data set on C2C12 [10]; in the data set with C2C12 [11]; in the data set with C2C12 [12]) was “Active” throughout. In addition, in [3], the efflux ratio was determined as 1.06. Also, the fold change (FC) in data set [2] came to 2.5. In data set [4], this compound showed a solubility of 1320 µg/mL (≈ 3.51 mM). Moreover, the pKa in data set [5] was above 14. In addition, the logP in data set [6] was 1.02. Further, the apparent permeability from apical to basolateral (Papp A→B) in data set [7] turned out to be 1.68 ×10⁻⁶ cm/s. Further, the Papp B→A in [8] stood at 1.78 ×10⁻⁶ cm/s. Besides, the outcome in the data set with C2C12 [13], in the data set with C2C12 [18], in the data set with C2C12 [20] and in the data set on C2C12 [21] was inactive. The outcome in the data set on C2C12 [14], with C2C12 [15], in the data set on C2C12 [16], with C2C12 [17] and in the data set with C2C12 [19] was Active. Also, the Activity is 0.49% with C2C12 [22]; 10.59% with C2C12 [23]; 5.4% with C2C12 [24]; 0.41% in the data set with C2C12 [26]; 7.14% with C2C12 [27]; 3.21% in the data set on C2C12 [28]. For the same compound, in the data set with C2C12 [25], the viability at 15 µM was 83.5%. In the data set with C2C12 [29], the viability at 30 µM was found to be 89.2%.
Regarding `OC[C@H]1O[C@@H](Oc2ccc(Cc3ccc(O)cc3)cc2)[C@H](O)[C@@H](O)[C@@H]1O`, in data set [3], the efflux ratio is 1.09. For the same compound, the solubility in data set [4] came out at 1640 µg/mL (≈ 4.53 mM). Besides, in [5], the pKa amounted to 10.4. Besides, the logP in data set [6] turned out to be 0.076. The compound also came in with a Papp A→B in [7] of 1.3 ×10⁻⁶ cm/s. For the same compound, in [8], the Papp B→A worked out at 1.42 ×10⁻⁶ cm/s.
For the compound `OC[C@H]1O[C@@H](OCC2(c3ccc(O)cc3)CCC2)[C@H](O)[C@@H](O)[C@@H]1O`, the inhibition result in data set [1] was “Active”. Also, in data set [2], the fold change (FC) turned out to be 1.63.
In data set [7], `O=S1(=O)OC(c2ccc(O)cc2)(c2ccc(O)cc2)c2ccccc21` [PHENOLSULFONPHTHALEIN] gave an apical-to-basolateral permeability (Papp A→B) of 0.35 ×10⁻⁶ cm/s.
With `OC[C@H]1O[C@@H](CCCc2ccc(O)cc2)[C@H](O)[C@@H](O)[C@@H]1O`, the inhibition result in data set [1] was “inactive”.
For the compound `OC[C@H]1O[C@@H](OCCc2ccccc2)[C@H](O)[C@@H](O)[C@@H]1O`, the inhibition result in data set [1] was “Active”. Also, the fold change (FC) in data set [2] was 1.76.

What is called efflux ratio is a quotient of directional permeabilities that is used to spot active efflux. The term solubility denotes how much of the substance goes into solution per volume. Read a high solubility as a readily soluble substance. In general, pKa refers to the pH at which an ionisable group is half protonated. Low readings indicate a group that gives up its proton readily, high ones a group that holds its proton tightly. The logP is a log measure of how a compound divides between an organic and an aqueous phase. A higher logP goes with a more lipophilic compound. For orientation: Papp A→B means the apparent permeability from the apical to the basolateral side of a cell layer. Read a high Papp A→B as fast passage. Usually Papp B→A stands for how fast a substance crosses the layer from the basolateral side.
